Like-named read-outs stand apart in the source and are kept apart here.
Experiments:
slaughter pigs [1] = assay: Cooking loss of pork chops; type: in vivo, pig; settings: 7 days at 2° C., LS mean ± SEM
From the text: (§1) Twenty-one slaughter pigs ([Yorkshire×Swedish Landrace]×Hampshire) were raised on a commercial diet. Pigs were randomly assigned to one of three groups (n=7). The groups represented three feeding strategies, namely a Control group which received a standardized diet comprising 0.27% total methionine, and both a DLM and HMTBA group, receiving the same diet as the Control group throughout the feeding period, apart from the fact that they were fed a higher level of methionine (1.1% total methionine) during a seven day finishing period immediately prior to slaughter. The supplements were given in two forms, either as D L-methionine (DLM) or DL-2-hydroxy-4-methylthiobutanoic acid (HMTBA).
(§2) Pigs were slaughtered at a commercial slaughter house in Sweden after a resting time of 5 hours. At 45 minutes post mortem, pH (Knick portamess 751 pH-meter with an Ingold LOT glass electrode, Tech Instrumentering ApS, Denmark) and temperature (digital thermometer, Weber, Stephen Nordic, Denmark) were measured in the m. Longissimus dorsi (LD) at the level of the 10th rib. At 48 hours post mortem, the entire back was dissected from the carcass and transported under controlled conditions to the University of Copenhagen for further measurements.
(§3) Pork chops were cut perpendicular to the long axis of each LD muscle. Six 3 cm thick pork chops was sliced from each LD. Three were vacuum packed and three were packed in a high-oxygen modified atmosphere. The chops were placed in plastic trays (M71-43A white/PS; 195×144×43 mm in dimension; Frch Plast, Denmark) and placed in vacuum bags (EM-628862; O2 transmission rate=40-50 cm^3/m^2/24 h/bar, CO2 transmission rate=150 cm^3/m^2/24 h/bar, water-vapour transmission rate=2.6 g/m^2/24 h; LogiCon Nordic A/S, Denmark). The ambient air was removed from all vacuum bags using a vacuum machine (type, manufacturer, country). The bags intended for […] were first filled with a gas mixture (80% oxygen/20% carbon dioxide) before being sealed completely, whereas the bags intended for MAP were only partially sealed. […] (until 9 days post mortem). The gas composition was checked (CheckMate 9900, PBI Dansensor, Denmark) before packaging and again prior to opening, at the end of the simulated display period in order to check for leakage. The oxygen-enriched environment was well maintained (83.4%) throughout the display period for all MA packages.
(§4) Storage loss was determined as the weight loss percentage at the end of the display period (9 days post mortem) relative to the weight at the day of packaging (two days post mortem). The cooking loss was determined as the weight loss percentage between the pork chops before and after cooking. The results are given as the mean of the three pork chops in each meat pack.

slaughter weight pigs = system: slaughter weight pigs
Protocol: Pigs ([Yorkshire×Swedish Landrace]×Hampshire)(n=10×3 were fed twice daily 2% of their body weight with the respective diets (either low or high methionine diets), water ad libitum.
Two square stimulating electrodes were placed next to one another (not touching) and infront of the recording electrodes, after which the muscle was stimulated at 10, 20, 60, 150 and 200 Hz and the subsequent responses were recorded. Two leads were placed on either side of the abdomen at a position of the last rib to form a “triangle” with the reference electrode and serve to record both respiratory movements as well as sECG signal.
Using electrodes placed either side of the abdomen at the position of the last rib, and a reference electrode placed on the ear, it was possible to create an Einthoven triangle and to record both an ECG (plus heart rate) and respiration rate through diaphragm movements. The recorded signal was assessed in terms of rate and the Q-T interval (time taken for the ventricles to depolarize and repolarize) using Chart analysis software (AD Instruments, Chalgrove, Oxfordshire, UK).
In addition to the sEMG recordings, we were able to obtain non-invasive measurements of the rate of respiration (breaths/min) and the heart rate (bpm) as well as an analysis of the recorded ECG in terms of the time taken for ventricle depolarization and repolarization, the so-called Q-T interval.
Table 1 presents the effects of 1 weeks dietary supplementation with DLM on the respiration and heart rate of 90-100 kg slaughter weight pigs, as well as the Q-T Interval. Values are the mean of a number of pigs, where “n” represents the number of animals per group. (ns) represents a difference between means that was not quite significant.

slaughter pigs [2] = assay: Storage loss of pork chops after display period; type: in vivo, pig; settings: 7 days at 2° C., 1.1% total methionine for 7 days before slaughter, LS mean ± SEM
From the text: as §1, §2, §3, §4

slaughter pigs [3] = assay: Instrumental meat colour (CIE L*a*b*), Example 1; type: in vivo, pig; settings: LS mean ± SEM
[4] = post (n = 6), after 1 weeks dietary supplementation
[5] = pre (n = 6), before supplementation
[6] = MAP 80% O2/20% CO2 (9 days post mortem)

Compound | Cooking loss (slaughter pigs [1]; MAP (80% O2 + 20% CO2)) | Cooking loss (slaughter pigs [1]; Vacuum) | Heart Rate (slaughter weight pigs; [4]) [bpm] | Q-T Interval (slaughter weight pigs; [4]) [ms] | Respiration (slaughter weight pigs; [4]) [breaths/min] | Difference in Q-T Interval: INCREASE by (slaughter weight pigs; post versus pre, P < 0.01) [% P < 0.01] | Difference in Heart Rate: DECREASE by (slaughter weight pigs; post versus pre, ns) | Difference in Respiration: DECREASE by (slaughter weight pigs; post versus pre, ns) | Heart Rate (slaughter weight pigs; [5]) [bpm] | Q-T Interval (slaughter weight pigs; [5]) [ms] | Respiration (slaughter weight pigs; [5]) [breaths/min] | Storage loss (slaughter pigs [2]; MAP (80% O2 + 20% CO2)) | Storage loss (slaughter pigs [2]; Vacuum) | Light reflection (L*) (slaughter pigs [3]; [6]) | Light reflection (L*) (slaughter pigs [3]; Vacuum (9 days post mortem)) | Redness (a*) (slaughter pigs [3]; Vacuum (9 days post mortem)) | Saturation index (slaughter pigs [3]; Vacuum (9 days post mortem)) | Yellowness (b*) (slaughter pigs [3]; Vacuum (9 days post mortem))
CSCCC(N)C(=O)O (racemic) [DLM, DL-methionine] | 15.82 ± 1.86 ^A g | 21.52 ± 1.86 ^A g | 110.11 | 242.31 | 23.53 | 8.5 | 9% (ns) | 12% (ns) | 121.17 | 223.21 | 26.83 | 9.34 ± 0.83 ^A g | 4.56 ± 0.89 ^B g | 59.19 ± 1.30 ^A | 57.83 ± 1.25 ^A, B | 8.21 ± 0.58 ^A, B | 11.55 ± 0.67 ^A, B, C | 8.11 ± 0.46 ^A, B
CSCCC(O)C(=O)O (racemic) [HMTBA, 2-hydroxy-4-(methylthio) butanoic acid] | 18.49 ± 1.73 ^A g | 21.35 ± 1.73 ^A g | – | – | – | – | – | – | – | – | – | 6.37 ± 0.83 ^A, B g | 4.63 ± 0.83 ^B g | 58.73 ± 1.30 ^A, B | 55.34 ± 1.25 ^A, B | 8.86 ± 0.58 ^A, C | 12.22 ± 0.67 ^A | 8.39 ± 0.46 ^A
